What all share (type): in vivo
One test deals with Helicoverpa armigera. The test is described as follows: Insecticidal activity against Helicoverpa armigera (soaking method). The following applies: Helicoverpa armigera, 48 h; 400 μg/mL; 2nd instar larvae; counted 2 days later; read-out: Mortality rate (%) H. armigera. The source says: (§1) Preparation of test agent. Dissolve accurately weighed tested compound in DMF to prepare 1% mother liquor, and then dilute it with distilled water containing 0.1% Tween-80 to corresponding concentrations for later use.
Insecticidal activity against Helicoverpa armigera. The soaking method was adopted ([Yang et al., 2022]). After soaking a proper amount of corn leaves for 10 s, they were placed in a plastic Petri dish with filter paper and dried naturally in the shade. Ten larvae of the 2nd instar H. armigera were attached to each dish and placed in an observation room at 26°C with light (16/8 h). The result was counted 2 days later, and the no-response insect body when it was lightly touched with a brush was regarded as dead. Each treatment was repeated 3 times, and DMF without the tested compound was used as a blank control.
(§2) The insecticidal activities of the test compounds against the abovementioned five insects were calculated by the following formula: P1=(K/N)×100, (1) P2=(Pt−P0)/(1−P0)×100, (2) where P1 is the mortality rate; K is the dead insect number; N is the total number of experimental insects; P2 is the corrected mortality rate; Pt is the mortality rate of treatment; P0 is the mortality rate of CK. If the mortality rate of CK is less than 5%, without the required correction, and if the mortality rate of CK is between 5 and 20%, P2 should be calculated according to formula II.

Another test concerns Aphis craccivora. Put plainly: Insecticidal activity against Aphis craccivora (Potter spray tower). As to conditions: 400 μg/mL, counted 24 h later, read-out: Mortality rate (%) A. craccivora. The procedure: as §1
Insecticidal activity against Aphis craccivora ([Liu et al., 2022]). About 30 nymphs of alfalfa aphid were placed on a horsebean leaf dish, and then 2.5 ml of the tested agent was sprayed with Potter spray tower. After treatment, they were cultured in an observation room at 20–22°C. The result was counted 24 h later, and the no-response insect body when it was lightly touched with tweezers was regarded as dead. Each treatment was repeated three times, and DMF without the tested compound was used as a blank control.
as §2

A further test relates to Plutella xylostella. The test is described as follows: Insecticidal activity against Plutella xylostella (soaking method). As to conditions: Plutella xylostella, 48 h, 2nd instar larvae, counted 2 days later, read-out: Mortality rate (%) P. xylostella; for mortality at 25 µg/mL: 25 μg/mL; for mortality at 100 µg/mL: 100 μg/mL; for mortality at 400 µg/mL: 400 μg/mL.
From the text: as §1
Insecticidal activity against Plutella xylostella ([Yang et al., 2021]). The soaking method was adopted. After soaking a proper amount of radish leaves for 10 s, it was placed in a plastic Petri dish with filter paper and dried naturally in the shade. Each dish was inoculated with 10 2nd instar P. xylostella larvae and placed in an observation room at 22°C with light (16/8 h). The result was counted 2 days later, and the no-response insect body when it was lightly touched with a brush was regarded as dead. Each treatment was repeated three times, and DMF without the tested compound was used as a blank control.
as §2

Another test relates to Nilaparvata lugens. The test is described as follows: Insecticidal activity against Nilaparvata lugens (Potter spray tower). The following applies: 24 h, 3rd instar nymphae, 1 day after treatment, read-out: Mortality rate (%) N. lugens; for mortality at 400 µg/mL: 400 μg/mL; for mortality at 100 µg/mL: 100 μg/mL.
From the text: as §1
Insecticidal activity against Nilaparvata lugens ([Ghareeb et al., 2021]). The seedlings with two leaves and one heart were placed in a Petri dish with a bottom diameter of 3 cm and covered with white sand. After the 3rd instar nymphae of N. lugens were stunned by CO2, about 15 nymphae were received in each dish, and then 2.5 ml of the tested agent was sprayed with Potter spray tower. The mortality of N. lugens was investigated 1 day after the treatment. Each treatment was repeated three times, and DMF without the tested compound was used as a blank control.
as §2

The test system of the next test is Chilo suppressalis. Put plainly: Insecticidal activity against Chilo suppressalis (soaking method). The following applies: 96 h, 3rd instar larvae, counted 4 days later, read-out: Mortality rate (%) C. suppressalis; for mortality at 400 µg/mL: 400 μg/mL.
From the text: as §1
Insecticidal activity against Chilo suppressalis ([Huang et al., 2022]). The soaking method was adopted. The Zizania latifolia slices were soaked in a tested solution for 10 s, then taken out, and placed in a plastic Petri dish with filter paper to naturally dry in the shade. […] The result was counted 4 days later, and the no-response insect body when it was lightly touched with a brush was regarded as dead. Each treatment was repeated three times, and DMF without the tested compound was used as a blank control.
as §2

Take `Cn1cc(C(=O)/N=c2\ccccn2Cc2cnn(-c3ccc(Cl)cc3)c2C(F)(F)F)c(C(F)F)n1` [Compound D4, (E)-N-(1-((1-(4-chlorophenyl)-5-(trifluoromethyl)-1H-pyrazol-4-yl)methyl)pyridin-2(1H)-ylidene)-3-(difluoromethyl)-1-methyl-1H-pyrazole-4-carboxamide]: the mortality at 400 µg/mL with Helicoverpa armigera worked out at 0%; in the test with Aphis craccivora it was 0%; in the test on Plutella xylostella, 100%; in the test with Nilaparvata lugens, 0%; in the test with Chilo suppressalis, 0%. Besides, in the test with Plutella xylostella, the mortality at 25 µg/mL worked out at 6.7%. The mortality at 100 µg/mL in the test with Plutella xylostella came out at 60%.
Turning to `COCC(=O)/N=c1\ccccn1Cc1cnn(-c2ccc(C(F)(F)F)cc2)c1C(F)(F)F` [Compound B5, (E)-2-methoxy-N-(1-((5-(trifluoromethyl)-1-(4-(trifluoromethyl)phenyl)-1H-pyrazol-4-yl)methyl)pyridin-2(1H)-ylidene)acetamide], the mortality at 400 µg/mL in the test on Helicoverpa armigera was 0%; with Aphis craccivora, 0%; with Plutella xylostella it was 100%; in the test on Nilaparvata lugens it was 0%; with Chilo suppressalis, 0%. Further, the mortality at 25 µg/mL with Plutella xylostella amounted to 0%. The mortality at 100 µg/mL with Plutella xylostella was 100%.
Turning to `O=C(/N=c1\ccccn1Cc1cnn(-c2ccccc2Cl)c1C(F)(F)F)C(F)(F)C(F)(F)F` [Compound C2, (E)-N-(1-((1-(2-chlorophenyl)-5-(trifluoromethyl)-1H-pyrazol-4-yl)methyl)pyridin-2(1H)-ylidene)-2,2,3,3,3-pentafluoropropanamide], the mortality at 400 µg/mL with Helicoverpa armigera, in the test with Aphis craccivora, in the test on Plutella xylostella, with Nilaparvata lugens and in the test on Chilo suppressalis was 0% each time.
On to `Cn1cc(C(=O)/N=c2\ccccn2Cc2cnn(-c3cccc(F)c3)c2C(F)(F)F)c(C(F)F)n1` [Compound D3, (E)-3-(difluoromethyl)-N-(1-((1-(3-fluorophenyl)-5-(trifluoromethyl)-1H-pyrazol-4-yl)methyl)pyridin-2(1H)-ylidene)-1-methyl-1H-pyrazole-4-carboxamide], for which the mortality at 400 µg/mL was found to be 0% in the test on Helicoverpa armigera; 0% in the test with Aphis craccivora; 63.3% in the test on Plutella xylostella; 100% with Nilaparvata lugens; 0% in the test with Chilo suppressalis. For the same molecule, in the test on Nilaparvata lugens, the mortality at 100 µg/mL stood at 0%.
In the case of `COCC(=O)/N=c1\ccccn1Cc1cnn(-c2ccccc2)c1C(F)(F)F` [Compound B1, (E)-2-methoxy-N-(1-((1-phenyl-5-(trifluoromethyl)-1H-pyrazol-4-yl)methyl)pyridin-2(1H)-ylidene)acetamide], the mortality at 400 µg/mL in the test on Helicoverpa armigera was determined as 0%; in the test on Aphis craccivora, 0%; in the test on Plutella xylostella it was 100%; in the test on Nilaparvata lugens, 48.9%; in the test with Chilo suppressalis, 0%. Also, the mortality at 25 µg/mL in the test on Plutella xylostella was found to be 16.7%. Also, in the test with Plutella xylostella, the mortality at 100 µg/mL turned out to be 100%.
With `O=C(/N=c1\ccccn1Cc1cnn(-c2cccc(Cl)c2)c1C(F)F)C(F)(F)C(F)(F)F` [Compound C6, (E)-N-(1-((1-(3-chlorophenyl)-5-(difluoromethyl)-1H-pyrazol-4-yl)methyl)pyridin-2(1H)-ylidene)-2,2,3,3,3-pentafluoropropanamide], the mortality at 400 µg/mL with Helicoverpa armigera was determined as 0%; with Aphis craccivora, 0%; in the test on Plutella xylostella it was 60%; with Nilaparvata lugens, 0%; in the test on Chilo suppressalis, 0%.
As for `Cn1cc(C(=O)/N=c2\ccccn2Cc2cnn(-c3ccc(C(F)(F)F)cc3)c2C(F)(F)F)c(C(F)F)n1` [Compound D5, (E)-3-(difluoromethyl)-1-methyl-N-(1-((5-(trifluoromethyl)-1-(4-(trifluoromethyl)phenyl)-1H-pyrazol-4-yl)methyl)pyridin-2(1H)-ylidene)-1H-pyrazole-4-carboxamide], the mortality at 400 µg/mL was 0% in the test with Helicoverpa armigera; 0% in the test on Aphis craccivora; 63.3% in the test on Plutella xylostella; 0% with Nilaparvata lugens; 0% in the test with Chilo suppressalis.
Regarding `O=C(/N=c1\ccccn1Cc1cnn(-c2ccc(Cl)cc2)c1C(F)(F)F)C(F)(F)F` [Compound A4, (E)-N-(1-((1-(4-chlorophenyl)-5-(trifluoromethyl)-1H-pyrazol-4-yl)methyl)pyridin-2(1H)-ylidene)-2,2,2-trifluoroacetamide], the mortality at 400 µg/mL with Helicoverpa armigera, in the test on Aphis craccivora, in the test with Plutella xylostella, with Nilaparvata lugens and in the test on Chilo suppressalis was 0% in each case.
As to `Cn1cc(C(=O)/N=c2\ccccn2Cc2cnn(-c3cccc(Cl)c3)c2C(F)F)c(C(F)F)n1` [Compound D6, (E)-N-(1-((1-(3-chlorophenyl)-5-(difluoromethyl)-1H-pyrazol-4-yl)methyl)pyridin-2(1H)-ylidene)-3-(difluoromethyl)-1-methyl-1H-pyrazole-4-carboxamide], the mortality at 400 µg/mL with Helicoverpa armigera turned out to be 0%; with Aphis craccivora it was 0%; in the test with Plutella xylostella it was 100%; with Nilaparvata lugens, 100%; with Chilo suppressalis it was 0%. Besides, the mortality at 25 µg/mL in the test on Plutella xylostella turned out to be 56.7%. For the same molecule, the mortality at 100 µg/mL with Plutella xylostella is 100%; in the test with Nilaparvata lugens, 0%.
With `COCC(=O)/N=c1\ccccn1Cc1cnn(-c2ccc(F)cc2)c1C(F)F` [Compound B8, (E)-N-(1-((5-(difluoromethyl)-1-(4-fluorophenyl)-1H-pyrazol-4-yl)methyl)pyridin-2(1H)-ylidene)-2-methoxyacetamide], the mortality at 400 µg/mL was found to be 0% with Helicoverpa armigera; 0% with Aphis craccivora; 56.7% with Plutella xylostella; 0% in the test on Nilaparvata lugens; 0% with Chilo suppressalis.
Take `O=C(/N=c1\ccccn1Cc1cnn(-c2ccc(F)cc2)c1C(F)F)C(F)(F)C(F)(F)F` [Compound C8, (E)-N-(1-((5-(difluoromethyl)-1-(4-fluorophenyl)-1H-pyrazol-4-yl)methyl)pyridin-2(1H)-ylidene)-2,2,3,3,3-pentafluoropropanamide]: the mortality at 400 µg/mL in the test on Helicoverpa armigera, with Aphis craccivora, in the test on Nilaparvata lugens and with Chilo suppressalis was 0% throughout.
In the case of `O=C(/N=c1\ccccn1Cc1cnn(-c2ccc(C(F)(F)F)cc2)c1C(F)(F)F)C(F)(F)C(F)(F)F` [Compound C5, (E)-2,2,3,3,3-pentafluoro-N-(1-((5-(trifluoromethyl)-1-(4-(trifluoromethyl)phenyl)-1H-pyrazol-4-yl)methyl)pyridin-2(1H)-ylidene)propanamide], the mortality at 400 µg/mL in the test on Helicoverpa armigera was 0%; in the test with Aphis craccivora, 0%; with Plutella xylostella it was 70%; in the test on Chilo suppressalis, 100%. Also, in the test with Chilo suppressalis (100 μg/mL), the mortality at 100 µg/mL was 0%.

Source of the values: publication PMC9574050, “Design, synthesis, and insecticidal activity of a novel series of flupyrimin analogs bearing 1-aryl-1H-pyrazol-4-yl subunits” (Frontiers in Chemistry, 2022).
